Drawing on patent US10633348B2, “Methods to treat lymphoplasmacytic lymphoma” (Dana-Farber Cancer Institute, Inc., priority 2013, dated 2020), this text covers IC50 and EC50 for 14 molecules.

For one test, the system named is HCK. It is filed as biochemical. To be noted: read-out: HCK IC50 (nM) Inv. From the text: The in vitro activity of the compounds described herein in inhibiting TAK1, HCK and other kinases were obtained using an Invitrogen Select Screening assay as known in the art. The IC50 values determined from this assay are shown below.
For the next test, the system named is BCWM.1. The test can be described thus: CellTiter-Glo cell viability assay. It is filed as cell-based. As to the method:
(§1) CellTiter-Glo® Luminescent cell viability assay (Promega) was used to assess cell survival following treatment with the compounds described. Cells were seeded into 384 well plates with the EL406 Combination Washer Dispenser (BioTek Instruments, Inc.) and the compounds were injected into the cells culture media with the JANUS Automated Workstation (PerkinElmer Inc.). Cells were treated with a series diluted inhibitors (20˜0.04 μM) for 72 hours at 37° C. Luminescent measurement is performed using the 2104 Envision® Multilabel Reader (PerkinElmer Inc.).

Another test deals with MWCL-1. Kind of test: CellTiter-Glo cell viability assay. Format: cell-based. As to the method:
as §1

Another test deals with OCI-Ly19. Kind of test: CellTiter-Glo cell viability assay. It is filed as cell-based. To be noted: Homo sapiens. As to the method: as §1
On the technique in general: ATP-based viability assays read luminescence as a measure of living cells.

The next test has as its system OCI-Ly3. The test can be described thus: CellTiter-Glo cell viability assay. It is filed as cell-based. Here is the method: as §1
The test system of the next test is Ramos. The test can be described thus: CellTiter-Glo cell viability assay. The settings on record: Homo sapiens. Format: cell-based. Here is the method: as §1
The test system of a further test is OCI-Ly7. Kind of test: CellTiter-Glo cell viability assay. To be noted: Homo sapiens, 72 hours. It is filed as cell-based. As to the method:
as §1

In another test the test system is TMD8. Kind of test: CellTiter-Glo cell viability assay. Format: cell-based. The settings on record: Homo sapiens, 72 hours. Here is the method: as §1

In the case of `CCN1CCN(Cc2ccc(NC(=O)c3ccc(C)c(Oc4cc(NC)ncn4)c3)cc2C(F)(F)F)CC1` [(A-1), N-(4-((4-ethylpiperazin-1-yl)methyl)-3-(trifluoromethyl)phenyl)-4-methyl-3-((6-(methylamino)pyrimidin-4-yl)oxy)benzamide], in the test on HCK, the concentration for half-maximal inhibition (IC50) was determined as 275 nM. The EC50 in the test with BCWM.1 (BCWM1, 72 h) amounted to 1.72 µM; in the test on MWCL-1 (72 h), 3.99 µM; in the test with OCI-Ly19 (OCI-LY19, 72 hours) it was 4.98 µM; with OCI-Ly3 (Homo sapiens, OCI-Ly3, 72 h), 11.5 µM; in the test with Ramos (72 hours) it was 9.48 µM.
Consider `CCC(=O)Nc1cc(Oc2cc(C(=O)Nc3ccc(CN4CCN(CC)CC4)c(C(F)(F)F)c3)ccc2C)ncn1` [(A-2), N-(4-((4-ethylpiperazin-1-yl)methyl)-3-(trifluoromethyl)phenyl)-4-methyl-3-((6-propionamidopyrimidin-4-yl)oxy)benzamide], for which the concentration for a half-maximal effect (EC50) was 0.042 µM in the test on BCWM.1 (BCWM1, 72 h); 1.35 µM with MWCL-1 (72 h); 1.75 µM in the test with OCI-Ly19 (OCI-LY19, 72 h); 2.96 µM in the test with OCI-Ly3 (Homo sapiens, OCI-Ly3, 72 h); 5.34 µM in the test with Ramos (72 h).
On the same counts, the results for `CCN1CCN(Cc2ccc(NC(=O)c3ccc(C)c(Oc4cc(NC(=O)C5CC5)ncn4)c3)cc2C(F)(F)F)CC1` [(A-3), 3-((6-(cyclopropanecarboxamido)pyrimidin-4-yl)oxy)-N-(4-((4-ethylpiperazin-1-yl)methyl)-3-(trifluoromethyl)phenyl)-4-methylbenzamide] are 0.05 µM, 0.91 µM, 0.6 µM, 0.48 µM and 2.68 µM.
On the same counts, the results for `CCN1CCN(Cc2ccc(NC(=O)c3ccc(C)c(Oc4cc(Nc5ccn[nH]5)ncn4)c3)cc2C(F)(F)F)CC1` [(A-6), 3-((6-((1H-pyrazol-5-yl)amino)pyrimidin-4-yl)oxy)-N-(4-((4-ethylpiperazin-1-yl)methyl)-3-(trifluoromethyl)phenyl)-4-methylbenzamide] are 0.086 µM, 0.118 µM, 0.302 µM, 4.77 µM and 3.08 µM.
On the same counts, the results for `CCN1CCN(Cc2ccc(NC(=O)c3ccc(C)c(Oc4cc(Nc5cn[nH]c5)ncn4)c3)cc2C(F)(F)F)CC1` [(A-7), 3-((6-((1H-pyrazol-4-yl)amino)pyrimidin-4-yl)oxy)-N-(4-((4-ethylpiperazin-1-yl)methyl)-3-(trifluoromethyl)phenyl)-4-methylbenzamide] are 0.048 µM, 0.071 µM, 0.192 µM, 4 µM and 3.02 µM.
Consider `CCN1CCN(Cc2ccc(NC(=O)c3ccc(C)c(Oc4cc(NNC(C)=O)ncn4)c3)cc2C(F)(F)F)CC1` [(A-9), 3-((6-(2-acetylhydrazinyl)pyrimidin-4-yl)oxy)-N-(4-((4-ethylpiperazin-1-yl)methyl)-3-(trifluoromethyl)phenyl)-4-methylbenzamide], for which the half-maximal inhibitory concentration (IC50) in the test with HCK is > 10000 nM. In addition, the EC50 in the test on BCWM.1 (72 hours) was 6.46 µM; in the test on BCWM.1 (BCWM1, 72 h) it was 10.8 µM; with MWCL-1 (72 h), 18.7 µM; in the test on MWCL-1 (72 hours), > 20 µM; in the test on OCI-Ly19 (OCI-LY19, 72 hours), > 20 µM; in the test on OCI-Ly3 (72 hours) it was > 20 µM. In addition, the 50% effective concentration (EC50) is 19.6 µM in the test on OCI-Ly3 (Homo sapiens, OCI-Ly3, 72 h) and > 20 µM with Ramos (72 hours).
As to `CCN1CCN(Cc2ccc(NC(=O)c3ccc(C)c(Oc4cc(NC5CNC5)ncn4)c3)cc2C(F)(F)F)CC1` [(A-10), 3-((6-(azetidin-3-ylamino)pyrimidin-4-yl)oxy)-N-(4-((4-ethylpiperazin-1-yl)methyl)-3-(trifluoromethyl)phenyl)-4-methylbenzamide], the IC50 in the test on HCK is > 10000 nM. For the same molecule, the EC50 in the test with MWCL-1 (72 h) was 24.8 µM; in the test on MWCL-1 (72 hours), > 20 µM; with OCI-Ly19 (OCI-LY19, 72 hours), > 20 µM; in the test on Ramos (72 hours) it was > 20 µM.
As for `CCN1CCN(Cc2ccc(NC(=O)c3ccc(C)c(Oc4cc(NN(C)C)ncn4)c3)cc2C(F)(F)F)CC1` [(A-11), 3-((6-(2,2-dimethylhydrazinyl)pyrimidin-4-yl)oxy)-N-(4-((4-ethylpiperazin-1-yl)methyl)-3-(trifluoromethyl)phenyl)-4-methylhenzamide], the IC50 in the test with HCK was > 10000 nM. Further, the EC50 in the test on BCWM.1 (BCWM1, 72 h) is 19.7 µM; in the test on MWCL-1 (72 h) it was > 20 µM; in the test with OCI-Ly19 (OCI-LY19, 72 hours) it was > 20 µM; in the test with OCI-Ly3 (Homo sapiens, OCI-Ly3, 72 h) it was > 20 µM; in the test on Ramos (72 hours) it was > 20 µM.
Regarding `CCN1CCN(Cc2ccc(NC(=O)c3ccc(C)c(Oc4cc(Nc5ccn(C)n5)ncn4)c3)cc2C(F)(F)F)CC1` [(A-12), N-(4-((4-ethylpiperazin-1-yl)methyl)-3-(trifluoromethyl)phenyl)-4-methyl-3-((6-((1-methyl-1H-pyrazol-3-yl)amino)pyrimidin-4-yl)oxy)benzamide], the 50% effective concentration (EC50) is 0.071 µM with BCWM.1 (72 hours); 0.038 µM in the test on BCWM.1 (BCWM1, 72 h); 0.075 µM with MWCL-1 (72 h); 0.071 µM in the test on MWCL-1 (72 hours); 0.209 µM with OCI-Ly19 (OCI-LY19, 72 h); 2.96 µM with Ramos (72 h).
With `CCN1CCN(Cc2ccc(NC(=O)c3ccc(C)c(Oc4cc(NC5COC5)ncn4)c3)cc2C(F)(F)F)CC1` [(A-13), N-(4-((4-ethylpiperazin-1-yl)methyl)-3-(trifluoromethyl)phenyl)-4-methyl-3-((6-(oxetan-3-ylamino)pyrimidin-4-yl)oxy)benzamide], the concentration giving a half-maximal response (EC50) in the test on MWCL-1 (72 h) was found to be 1.76 µM; in the test on MWCL-1 (72 hours), 2.86 µM; with OCI-Ly19 (OCI-LY19, 72 h), 2.28 µM; in the test with OCI-Ly3 (72 hours), 1.73 µM; in the test with OCI-Ly3 (Homo sapiens, OCI-Ly3, 72 h), 1.2 µM; with Ramos (72 h), 3.26 µM.
For the molecule `CCN1CCN(Cc2ccc(NC(=O)c3ccc(C)c(Oc4ccnc(Nc5cnoc5)n4)c3)cc2C(F)(F)F)CC1` [(A-15), N-(4-((4-ethylpiperazin-1-yl)methyl)-3-(trifluoromethyl)phenyl)-3-((2-(isoxazol-4-ylamino)pyrimidin-4-yl)oxy)-4-methylbenzamide], the EC50 is 0.185 µM in the test with BCWM.1 (BCWM1, 72 h); 0.718 µM in the test with MWCL-1 (72 h); 0.307 µM in the test with OCI-Ly19 (OCI-LY19, 72 h); 0.786 µM with OCI-Ly7; 4.68 µM in the test with Ramos (72 h); 0.392 µM in the test on TMD8.
On to `CCN1CCN(Cc2ccc(NC(=O)c3ccc(C)c(Oc4cc(Nc5cnoc5)ncn4)c3)cc2C(F)(F)F)CC1` [(A-16), N-(4-((4-ethylpiperazin-1-yl)methyl)-3-(trifluoromethyl)phenyl)-3-((6-(isoxazol-4-ylamino)pyrimidin-4-yl)oxy)-4-methylbenzamide], for which the EC50 was 0.61 µM with BCWM.1 (BCWM1, 72 h); 1.71 µM in the test with MWCL-1 (72 h); 0.777 µM in the test on OCI-Ly19 (OCI-LY19, 72 hours); 1.03 µM in the test with OCI-Ly7; 1.31 µM in the test on Ramos (72 hours); 0.856 µM in the test with TMD8.
Consider `C=CC(=O)NNc1cc(Oc2cc(C(=O)Nc3ccc(CN4CCN(CC)CC4)c(C(F)(F)F)c3)ccc2C)ncn1` [(A-18)], for which the EC50 in the test with BCWM.1 (72 hours) turned out to be 3.75 µM; in the test on BCWM.1 (BCWM1, 72 h), 1.98 µM; in the test on MWCL-1 (72 h) it was 4.09 µM; in the test with MWCL-1 (72 hours), 6.74 µM; in the test on OCI-Ly19 (OCI-LY19, 72 h) it was 2.78 µM; in the test with Ramos (72 h), 7.24 µM.
Turning to `Cc1ccc(C(=O)Nc2cccc(C(C)(C)C#N)c2)cc1Oc1ncnc2[nH]ccc12` [(I-11), 3-((7H-pyrrolo[2,3-d]pyrimidin-4-yl)oxy)-N-(3-(2-cyanopropan-2-yl)phenyl)-4-methylbenzamide], the EC50 was 4.95 µM in the test with BCWM.1 (BCWM1, 72 h); 1.44 µM with MWCL-1 (72 h); 9.69 µM in the test on OCI-Ly3 (Homo sapiens, OCI-Ly3, 72 h); 1.12 µM in the test on OCI-Ly7; 3.89 µM in the test on Ramos (72 hours); 3.46 µM in the test on TMD8.

In general, IC50 refers to the concentration needed to halve the response being measured. The term EC50 denotes the concentration at which the effect is half-maximal.
